Results taken from US9771331B2, “Methods of identifying neuroprotective compounds for retinal ganglion cells” (THE JOHNS HOPKINS UNIVERSITY, priority 2005, dated 2017).
“Also recorded” adds a separate entry of the source.

B1: CNTF: peptide trophic factor (protein, UniProt P26441 1-200, looked up)
Ciliary neurotrophic factor: MAFTEHSPLTPHRRDLCSRSIWLARKIRSDLTALTESYVKHQGLNKNINLDSADGMPVASTDQWSELTEAERLQENLQAYRTFHVLLARLLEDQQVHFTPTEGDFHQAIHTLLLQVAAFAYQIEELMILLEYKIPRNEADGMPINVGDGGLFEKKLWGLKVLQELSQWTVRSIHDLRFISSHQTGIPARGSHYIANNKKM
B2: TGFβ2: growth factor tested at 50 ng/ml on cultured RGCs (protein, UniProt P61812 303-414, looked up)
Transforming growth factor …: ALDAAYCFRNVQDNCCLRPLYIDFKRDLGWKWIHEPKGYNANFCAGACPYLWSSDTQHSRVLSLYNTINPEASASPCCVSQDLEPLTILYYIGKTPKIEQLSNMIVKSCKCS
B3: BMP13: bone morphogenetic protein, member of the TGFβ superfamily (protein, UniProt Q6KF10 336-455, looked up)
Growth/differentiation factor …: TAFASRHGKRHGKKSRLRCSKKPLHVNFKELGWDDWIIAPLEYEAYHCEGVCDFPLRSHLEPTNHAIIQTLMNSMDPGSTPPSCCVPTKLTPISILYIDAGNNVVYKQYEDMVVESCGCR

Legend:
[1] = system: retinal ganglion cells (RGCs); test: Overall cell survival of cultured RGCs after 120 hours; format: cell-based, rat; details: 50 ng/ml
Method: (§1) The purified Thy-1 immunoreactive cells are resuspended in growth media (Neurobasal media, B27 supplement, 2 mM glutamine, and 1 U/ml penicillin/streptomycin) and quantified using a hematocytometer. Cells are seeded in 100 μl at a density of 4000 cells/well (150/mm^2) in 96 well culture dishes (Falcon) that had been sequentially coated with poly-d-lysine (0.01 mg/ml) and laminin (0.01 μg/μl) (Sigma). Each well either contains 25 μl of media alone or 5× drug or 5×BDNF and forskolin. Final concentrations are: DMSO (1%), drug (20 to 30 μM), BDNF (50 ng/ml) and forskolin (10 μM). Culture dishes are placed in an incubator maintained at 37° C. and 5% CO2. One hour after seeding, a post-seeding viability is determined by staining with Hoechst and TOTO3 and calculating the percent of live cells.
(§2) After 120 hours of incubation, cells are stained with 5 μM Hoechst and 10 μM Calcein AM (Molecular Probes). Calcein AM (Calcein acetoxymethyl), the dye that is used to stain living cells and their neurites, is a green dye that is permeant to living cells. After internalization by cells, the nonfluorescent calcein AM is converted to fluorescent calcein upon hydrolysis of the acetoymethyl ester by intracellular esterases. Cleavage of the AM group occurs spontaneously when calcein AM is suspended in aqueous solution resulting in a significant increase in background fluorescence over time. TOTO3, which stains the nuclei of dead cells, can be used to determine viability.
Images are processed using the Cellomics Extended Neurite Outgrowth software program. In the initial image processing, cells are identified on the Hoechst channel and selected based on size such that of clusters of cells may be excluded from analysis. In addition, each nuclei on the Hoechst channel is matched to a calcein-stained cell and counted as a “valid neuron” (i.e., a live cell). Neurons can be further selected based on size in the calcein channel. The Extended Neurite Outgrowth program is used to trace neurites extending from these selected neurons. The mean neurite length, mean neurite count, mean number of branch points, and mean number of crosspoints are determined. In addition, the percent of cells with neurite features (e.g., neurite length, neurite count) surpassing a threshold of one standard deviation above the mean neurite characteristic of a set of reference wells containing cells and growth medium without additional growth factors is determined. The “neurite outgrowth” measurement is based on the combined mean neurite length and mean neurite count.

[2] = system: retinal ganglion cells (RGCs); test: High-content neurite outgrowth screen of purified retinal ganglion cell cultures (number of outgrowth neurons); format: cell-based, rat; details: for number of outgrowth neurons: 50 ng/ml, 120 hours, versus cultures grown in medium only; for activity compared with TPAO / activity of compounds similar to TPAO: 4 different concentrations
Method: Retinal ganglion cell harvest and immunopurification are performed as described above and in the specific Examples, below. A concentration range of neuroprotective compounds to be validated is prepared and added to test wells (e.g., to achieve final concentrations of 3 μM, 10 μM, 15 μM, 30 μM, 60 μM, 90 μM, 120 μM, and 150 μM in 1% DMSO in each well). For a neuroprotective compound obtained from the […]™ library, for example, 1 mg of desiccated compound can be resuspended in 22.2 μl of DMSO to a final stock solution of 150 mM. […] Afterwards, the solution can be stored in the dark at −20° C.
Neuroprotective compounds and positive control factors are added to the appropriate wells of a 96-well plate (e.g., 25 μl to each well in a 5× concentration prior to the seeding cells in a volume of 100 μl giving a final volume of 125 μl). Cells are incubated, stained, and imaged as described above and in the specific Examples, below. Experiments preferably are performed in duplicate. Following normalization to a negative control (e.g., a well containing medium only), a dose response curve can be plotted. Statistical software (e.g., from SPSS) can be used to perform curve fitting and analysis.
An efficient two-step immunomagnetic purification of a mixed cell population obtained from postnatal rat retina is used to provide a highly enriched population of RGCs for culture. The first step is an immunomagnetic depletion of […] non-RCGS using a cd11b/c. The second step is an immunomagnetic selection of RGCs with an antibody that binds Thy1 on the RGC cell surface. The cells are then released from the magnetic beads by digesting the DNA linker with a low concentration of DNase. Cells are grown on poly-d-lysine/laminin coated plastic plates in a basic medium (Neurobasal media, B27 supplement, glutamine, and penicillin/streptomycin).
as §1, §2
Fifteen stereotypic field are autofocus imaged on a Cellomics […]® High Content Scan Reader using epifluorescence and filter sets corresponding to each of the two dyes. This instrument employs a Zeiss fluorescence microscope, a temperature and CO2 live cell chamber, an integrated liquid handling system, and image analysis software that permits staining, imaging, and analysis of the cells and their neurites in approximately 5 hours per plate.

RGCs = details: peptide trophic factors; Meyer-Franke et al. 1995; cited from earlier work
[3] = system: retinal ganglion cells (RGCs); test: RGCs on glass coverslips in 24-well plates, neurofilament immunostaining, counting neurons with neurite extension; format: cell-based, rat; details: neurofilament antibody
Method: FIG. 4. […] Immunopurified postnatal rat RGCs were cultured in increasing concentrations of TPAO in the presence of 1% DMSO. […] The effect of TPAO is synergistic with both BDNF and forskolin.
Although the developed technique for performing cell culture is effective and objective, it is desirable to assess the outcome of a screen using a different technique. Thus, for example, the technique of culturing cells on poly d-lysine and laminin coated coverslips in 24 well culture dishes under various culture conditions can be followed by immunostaining with anti-neurofilament antibody and quantitative analysis.
After determination of the dose response relationship and concentration at which the neuroprotective compound has it is maximal effect in culture, cells can be cultured on poly d-lysine and laminin coated cover slips (BD Pharmingen) in the presence of the neuroprotective compound, with appropriate positive and negative controls. […]
For example, in one embodiment cells are fixed with 4% paraformaldehyde, washed with PBS, blocked with PBS/0.1% Triton X/20% goat serum, and incubated overnight in PBS/0.1% Triton X/20% goat serum containing 1:100 dilution of rabbit anti-neurofilament (68 kd) antibody (Chemicon). […] The number of cells with neurite outgrowth at 3 different radii is determined (Scholl analysis) and compared using Student t test.

Row | Molecule | overall cell survival (number of surviving cells) [1] | number of outgrowth neurons [2] | also measured
1 | TGFβ1: growth factor tested at 50 ng/ml on cultured RGCs | no effect | No significant change | –
2 | BDNF: peptide trophic factor known to promote RGC survival; positive control | slight increase in the number of surviving cells that did not reach statistical significance | significantly increased; also recorded: Statistically significant increases | concentration of maximal effect on RGCs (RGCs): 10 ng/mL
3 | GDF8: BMP-related myostatin/Gdf8 (Growth and differentiation factor 8) | slight increase in the number of surviving cells that did not reach statistical significance | significantly increased; also recorded: Statistically significant increases | –
4 | CC1(C)CC(=NOC(=O)c2ccccc2)CC(C)(C)N1 [2,2,6,6-tetramethyl-4-piperidinone O-benzoyloxime] | – | – | activity compared with TPAO [2]: less than that of TPAO; activity of compounds similar to TPAO [2]: showed activity
5 | CC1(C)CC(=NNC(N)=S)CC(C)(C)N1 [2,2,6,6-tetramethyl-4-piperidinone thiosemicarbazone] | – | – | activity compared with TPAO [2]: less than that of TPAO; activity of compounds similar to TPAO [2]: showed activity
6 | TGFα: growth factor tested at 50 ng/ml on cultured RGCs | no effect | No significant change | –
7 | CC(=O)ON=C1CC(C)(C)NC(C)(C)C1 [TPAO, 2,2,6,6-tetramethyl-4-piperidinone O-acetyloxime] | – | – | effect on neurons with a neurite extension greater than one cell body in diameter [3]: demonstrated; effect in combination with BDNF and forskolin [2]: synergistic; dose dependence of survival/growth of neurite-bearing RGCs ([2]; dose response 3 μM to 150 μM): dose-dependent manner; activity if the medium was changed at 24 hours ([2]; medium change at 24 hours): lost
8 | B1 | – | – | concentration of maximal effect on RGCs (RGCs): 0.1 ng/mL
9 | B2 | no effect | No significant change | –
10 | B3 | no effect | significantly increased; also recorded: Statistically significant increases | –
